According to US9034398B2, “Traditional Chinese drug comprising Danshen extracts and Sanqi extracts and use thereof” (TASLY Pharmaceutical Group Co., LTD., priority 2009, dated 2015):

Assays:
[1] = tested on: rat myocardial I/R model; test: Diameters of the venules of heart coronary vessels after myocardial I/R; type: in vivo; conditions: 5 mg/kg BW/h intravenous drip; entire observation; FIG. 1
Procedure: The rats were anesthetized by intramuscularly injecting 20 wt % urethane (1.25 g/kg) and fixed in the supine position. Neck skin was incised and anterior cervical muscles were separated to expose the trachea. Tracheal intubation was performed. Another end of the intubation was attached to a Small Animal Ventilator (ALC-V8, Shanghai Aoteshai Biology Science and Technology Limited Company, Shanghai, China) so as to carry out pressure breathing under the following conditions: a respiratory ratio of 1:1, a respiratory frequency of 75 times/min and a tidal volume of 12 mL/kg. The rectal temperature, measured with YSI REF 401 (Yellow Spring, Ohio, USA), was maintained at 37 37.5° C. by using a thermal blanket. […] Heart coronary vessel microcirculation had been recorded by a CD video recorder ([…], US). […] The diameter of the venules and RBC velocity under a same visual field were recorded before ischemia, 30 min after ischemia, 30 min after reperfusion and 60 min after reperfusion. Recordings were replayed at 25 frames·s^-1, diameters of the arterioles and the venules as well as RBC velocities were measured with Image-Pro Plus 5.0 software. RBC velocities in the rat's heart arterioles and venules were expressed as “mm/s”, and the diameters of the rat's heart arterioles and venules were expressed as “μm”.

[2] = tested on: rat's mesenteric venule walls; conditions: prior researches; rat mesentery, I/R; cited from earlier work
[3] = tested on: rat's liver; conditions: previous researches, cited from earlier work

| Structure (SMILES) | change in the diameters of the venules of the heart coronary vessels [1] | adhesion between leucocytes and venule walls [2] | expression of leucocytes adhesion molecules CD11b/CD18 [2] | leakage of plasma albumin [2] | leukocytes adhered to rat's liver caused by I/R [3] | microcirculation disorder of the liver ([3]; rat, I/R) |
| --- | --- | --- | --- | --- | --- | --- |
| O=C(O)C(O)Cc1ccc(O)c(O)c1 (stereo not shown) [Danshensu, (3,4-dihydroxyphenyl)lactic acid] | no significant change | potential for inhibiting | potential for inhibiting | potential for inhibiting | – | – |
| CC(C)=CCC[C@](C)(O[C@@H]1O[C@H](CO)[C@@H](O)[C@H](O)[C@H]1O)[C@H]1CC[C@]2(C)[C@@H]1[C@H](O)C[C@@H]1[C@@]3(C)CC[C@H](O)C(C)(C)[C@@H]3[C@@H](O[C@@H]3O[C@H](CO)[C@@H](O)[C@H](O)[C@H]3O[C@@H]3OC[C@@H](O)[C@H](O)[C@H]3O)C[C@]12C [Notoginsenoside R1] | no significant change | – | – | – | can reduce | can ameliorate |
